Among the data in patent publication US8513423B2 (Janssen Pharmaceutica, NV, priority 2010, dated 2013) are Kd and IC50 values, retold here.

Changes are numbered by the printed parent chain. Read-outs that look alike come from different tables or passages of the source. Where only a bound is given, the exact number is not on record here.

Experiment [1] deals with T1, mutant MGL (Homo sapiens, UniProt Q99685, L169S/L176S).
T1 construct: purified mutant MGL (mut-MGLL 11-313 L179S L186S)
T1 sequence (Q99685 1-303 L169S/L176S): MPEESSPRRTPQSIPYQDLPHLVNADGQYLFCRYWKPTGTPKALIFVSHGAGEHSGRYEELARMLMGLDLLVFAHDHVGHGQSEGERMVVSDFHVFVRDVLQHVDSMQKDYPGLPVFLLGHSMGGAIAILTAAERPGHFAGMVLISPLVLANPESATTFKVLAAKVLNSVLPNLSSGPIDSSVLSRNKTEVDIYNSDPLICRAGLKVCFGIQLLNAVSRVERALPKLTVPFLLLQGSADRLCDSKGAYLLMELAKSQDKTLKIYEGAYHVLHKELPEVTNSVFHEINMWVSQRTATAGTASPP
Kind of experiment: MGL ThermoFluor assay - mutant. It counts as binding. The procedure: The ThermoFluor (TF) assay is a 384-well plate-based binding assay that measures thermal stability of proteins^1,2. The experiments were carried out using instruments available from Johnson & Johnson Pharmaceutical Research & Development, LLC. TF dye used in all experiments was 1,8-ANS (Invitrogen: A-47). Final TF assay conditions used for MGL studies were 0.07 mg/ml of mutant MGL, 100 μM ANS, 200 mM NaCl, 0.001% Tween-20 in 50 mM PIPES (pH=7.0).
Screening compound plates contained 100% DMSO compound solutions at a single concentration. For follow-up concentration-response studies, compounds were arranged in a pre-dispensed plate (Greiner Bio-one: 781280), wherein compounds were serially diluted in 100% DMSO across 11 columns within a series. Columns 12 and 24 were used as DMSO reference and contained no compound. For both single and multiple compound concentration-repsonse experiments, the compound aliquots (46 nL) were robotically predispensed directly into 384-well black assay plates (Abgene: TF-0384/k) using the Hummingbird liquid handler. Following compound dispension, protein and dye solutions were added to achieve the final assay volume of 3 μL. The assay solutions were overlayed with 1 μl of silicone oil (Fluka, type DC 200: 85411) to prevent evaporation.
Bar-coded assay plates were robotically loaded onto a thermostatically controlled PCR-type thermal block and then heated from 40 to 90° C. degrees at a ramp-rate of 1° C./min for all experiments. Fluorescence was measured by continuous illumination with UV light (Hamamatsu LC6), supplied via fiber optics and filtered through a band-pass filter (380-400 nm; >6 OD cutoff). Fluorescence emission of the entire 384-well plate was detected by measuring light intensity using a CCD camera (Sensys, Roper Scientific) filtered to detect 500±25 nm, resulting in simultaneous and independent readings of all 384 wells. A single image with 20-sec exposure time was collected at each temperature, and the sum of the pixel intensity in a given area of the assay plate was recorded vs temperature and fit to standard equations to yield the Tm^1. • 1. Pantoliano, M. W., Petrella, E. C., Kwasnoski, J. D., Lobanov, V. S., Myslik, J., Graf, E., Carver, T., Asel, E., Springer, B. A., Lane, P., and Salemme, F. R. (2001) J Biomol Screen 6, 429-40. • 2. Matulis, D., Kranz, J. K., Salemme, F. R., and Todd, M. J. (2005) Biochemistry 44, 5258-66.
The Kd values for compounds of Formula (I) were determined from a fit of the equation to the concentration-response plot of the fractional activity as a function of Tm. For some experiments, quantitative NMR spectroscopy (qNMR) was used to measure concentration of the initial 100% DMSO compound solutions and, using the same fitting method, qKd values were determined
(Differential scanning fluorimetry follows unfolding on heating by fluorescence.)

In experiment [2] the target is T2, purified wild type MGL (wt-MGLL 6H-11-313) (Homo sapiens, UniProt Q99685).
T2 construct: purified wild type MGL (wt-MGLL 6H-11-313)
T2 sequence (Q99685 1-303): T1 sequence (Q99685 1-303 L169S/L176S) with S169L, S176L
Put plainly: MGL enzyme activity assay (4MU-B cleavage), wild type MGL. It counts as biochemical. As to conditions: 10 μM 4MU-B, 5 nM enzyme, 37° C., read-out: MGL wild type inh IC50. The procedure:
All rate-based assays were performed in black 384-well polypropylene PCR microplates (Abgene) in a total volume of 30 μL. Substrate 4-methylumbelliferyl butyrate (4MU-B; Sigma) and either purified mutant MGL (mut-MGLL 11-313 L179S L186S) or purified wild type MGL (wt-MGLL 6H-11-313) were diluted separately into 20 mM PIPES buffer (pH=7.0), containing 150 mM NaCl and 0.001% Tween 20. Compounds of Formula (I) were pre-dispensed (50 nL) into the assay plate using a Cartesian Hummingbird prior to adding 4MU-B (25 μL of 1.2× solution to a final concentration of 10 μM) followed by enzyme (5 μL of a 6× solution to a final concentration of 5 nM) to initiate the reaction. Final compound concentrations ranged from 17 to 0.0003 μM. The fluorescence change due to 4MU-B cleavage was monitored with excitation and emission wavelengths of 335 and 440 nm, respectively, and a bandwidth of 10 nm (Safire^2, Tecan) at 37° C. for 5 min.
The IC50 values for compounds of Formula (I) were determined using Excel from a fit of the equation to the concentration-response plot of the fractional activity as a function of inhibitor concentration.

Where [3] appears, read: compound concentration measured by qNMR, read-out: MGL mutant ThermoFluor qKd (using qNMR conc.).
Setting [4] is: 0.07 mg/ml mutant MGL, pH=7.0, read-out: MGL mutant ThermoFluor Kd.

As a reminder, the IC50 is the concentration needed to halve the response being measured. Consider `Cc1nc2cc(C(=O)N3CC(C4CCN(C(=O)c5nccs5)CC4)C3)ccc2n1-c1ccc(F)c(F)c1` [Cpd 88, 1-(3,4-Difluorophenyl)-2-methyl-5-({3-[1-(1,3-thiazol-2-ylcarbonyl)piperidin-4-yl]azetidin-1-yl}carbonyl)-1H-benzimidazole], for which, in experiment [1] (setting [3]), the Kd was 13.3 nM. Moreover, the IC50 in experiment [2] worked out at 9.49 nM.

On to `O=C(c1ccc(-c2ccccc2)cc1)N1CC(C2CCN(C(=O)c3cncs3)CC2)C1` [Cpd 5, 4-[1-(Biphenyl-4-ylcarbonyl)azetidin-3-yl]-1-(1,3-thiazol-5-ylcarbonyl)piperidine], for which the Kd in experiment [1] (setting [4]) is 64.1 nM. In addition, in experiment [2], the IC50 is 87.6 nM.

For `Cc1nc2cc(C(=O)N3CC(C4CCN(C(=O)c5nccs5)CC4)C3)ccc2n1CCC(F)(F)F` [Cpd 91, 2-Methyl-5-({3-[1-(1,3-thiazol-2-ylcarbonyl)piperidin-4-yl]azetidin-l-yl}carbonyl)-1-(3,3,3-trifluoropropyl)-1H-benzimidazole], the Kd in experiment [1] (setting [3]) amounted to 32.5 nM. Also, the IC50 in experiment [2] turned out to be 237 nM.

Consider `Cc1nc2cc(C(=O)N3CC(C4CCN(C(=O)c5nccs5)CC4)C3)ccc2n1-c1ccc(C(F)(F)F)cc1` [Cpd 89, 2-Methyl-5-({3-[1-(1,3-thiazol-2-ylcarbonyl)piperidin-4-yl]azetidin-1-yl}carbonyl)-1-[4-(trifluoromethyl)phenyl]-1H-benzimidazole], for which the Kd in experiment [1] (setting [3]) turned out to be 7.7 nM. For the same molecule, in experiment [2], the IC50 was determined as 34.1 nM.

Turning to `Cc1c(C(=O)N2CCC(C3CN(C(=O)c4cscn4)C3)CC2)sc2cc(C(F)(F)F)ccc12` [Cpd 61], the Kd was 0.6 nM in experiment [1] (setting [4]) and 0.5 nM in experiment [1] (setting [3]). In experiment [2], the IC50 turned out to be 211 nM.

In the case of `O=C(c1ccc2c(ccn2-c2ccc(F)c(F)c2)c1)N1CC(C2CCN(C(=O)c3nccs3)CC2)C1`, in experiment [1] (setting [4]), the Kd turned out to be 0.6 nM. Also, in experiment [2], the IC50 was below 5 nM.

On to `O=C(c1ccc2c(c1)ncn2-c1ccc(C(F)(F)F)cc1)N1CC(C2CCN(C(=O)c3nccs3)CC2)C1` [Cpd 83, 5-({30[1-(1,3-Thiazol-2-ylcarbonyl)piperidin-4-yl]azetidin-1-yl}carbonyl)-1-[4-(trifluoromethyl)phenyl]-1H-benzimidazole], for which, in experiment [1] (setting [3]), the Kd turned out to be 13.6 nM. Further, the IC50 in experiment [2] is 9.16 nM.

Regarding `Cc1nc2cc(C(=O)N3CC(C4CCN(C(=O)c5nccs5)CC4)C3)ccc2n1-c1ccccc1` [Cpd 86, 2-Methyl-1-phenyl-5-({3-[1-(1,3-thiazol-2-ylcarbonyl)piperidin-4-yl]azetidin-1-yl}carbonyl)-1H-benzimidazole], the Kd in experiment [1] (setting [3]) amounted to 10.6 nM. Moreover, in experiment [2], the IC50 turned out to be 18.7 nM.

As to `O=C(c1ccc2c(c1)[nH]c(=O)n2-c1ccccc1)N1CC(C2CCN(C(=O)c3nccs3)CC2)C1` [Cpd 96, 1-Phenyl-5-({3-[1-(1,3-thiazol-2-ylcarbonyl)piperidin-4-yl]azetidin-1-yl}carbonyl)-1,3-dihydro-2H-benzimidazol-2-one], the Kd in experiment [1] (setting [3]) was 24.7 nM. In experiment [2], the IC50 worked out at 78.1 nM.

For the molecule `O=C(c1ccc2c(c1)[nH]c(=O)n2-c1ccc(F)cc1)N1CC(C2CCN(C(=O)c3nccs3)CC2)C1` [Cpd 97, 1-(4-Fluorophenyl)-5-({3-[1-(1,3-thiazol-2-ylcarbonyl)piperidin-4-yl]azetidin-1-yl}carbonyl)-1,3-dihydro-2H-benzimidazol-2-one], the Kd in experiment [1] (setting [3]) worked out at 22.1 nM. In experiment [2], the IC50 stood at 34 nM.

Take `O=C(c1cscn1)N1CC(C2CCN(C(=O)c3ccc(-c4ccccc4)cc3F)CC2)C1` [Cpd 46]: the Kd in experiment [1] (setting [3]) is 20 nM. For the same molecule, in experiment [2], the IC50 is 111 nM.

In the case of `O=C(c1ccc(-c2cccc(C(F)(F)F)c2)cc1)N1CCC(C2CN(C(=O)c3nccs3)C2)CC1` [Cpd 48, 4-[1-(1,3-Thiazol-2-ylcarbonyl)azetidin-3-yl]-1-{[3′-(trifluoromethyl)biphenyl-4-yl]carbonyl}piperidine], in experiment [1] (setting [3]), the Kd was determined as 1 nM. In addition, in experiment [2], the IC50 is below 5 nM.

For `O=C(c1cccc(-c2cccc(F)c2)c1)N1CC(C2CCN(C(=O)c3cscn3)CC2)C1` [Cpd 11, 4-{1-[(3′-Fluorobiphenyl-3-yl)carbonyl]azetidin-3-yl}-1-(1,3-thiazol-4-ylcarbonyl)piperidine], the Kd in experiment [1] (setting [4]) was found to be 732 nM. For the same molecule, the IC50 in experiment [2] amounted to 498 nM.

On to `O=C(c1ccc2c(ccn2-c2ccc(Cl)cn2)c1)N1CC(C2CCN(C(=O)c3nccs3)CC2)C1` [Cpd 93, 1-(5-Chloropyridin-2-yl)-5-({3-[1-(1,3-thiazol-2-ylcarbonyl)piperidin-4-yl]azetidin-1-yl}carbonyl)-1H-indole], for which the Kd in experiment [1] (setting [4]) worked out at 5.5 nM. The IC50 in experiment [2] was below 5 nM.

For `O=C(c1ccc2c(ccn2-c2ccc(C(F)(F)F)cc2)c1)N1CCC(C2CN(C(=O)c3nccs3)C2)CC1` [Cpd 75, 5-({4-[1(1,3-Thiazol-2-ylcarbonyl)azetidin-3-yl]piperidin-1-yl}carbonyl)-1-[4-(trifluoromethyl)phenyl]-1H-indole], the Kd in experiment [1] (setting [3]) was 3.9 nM. In addition, the IC50 in experiment [2] was below 5 nM.

`O=C(c1ccc2c(c1)ncn2-c1ccc(F)cc1)N1CC(C2CCN(C(=O)c3nccs3)CC2)C1` [Cpd 81, 1-(4-Fluorophenyl)-5-({3-[1-(1,3-thiazol-2-ylcarbonyl)piperidin-4-yl]azetidin-1-yl}carbonyl)-1H-benzimidazole]: the Kd in experiment [1] (setting [3]) turned out to be 14.8 nM. The IC50 in experiment [2] was 23.2 nM.
